# Measured values taken from BindingDB's records for doi:10.1021/jm0506165 (Universita Di Napoli Federico Ii, 2006).
# Target: Protein farnesyltransferase/geranylgeranyltransferase type-1 subunit alpha (Bos taurus, UniProt P29702)
# Assay: PFT IC50 Determination
# Details: pH 7.5; 37 °C
# Description: Assays for PFT activity were performed with a PFT-specific scintillation assay (SPA) kit (Amersham Biosciences, Piscataway, NJ). IC50 values were calculated using linear regression analysis of the plots of [3H] farnesyl pyrophosphate (FPP) prenylation versus concentration of compounds.
row,Compound,IC50 [nM]
1,"CSCC[C@H](NC(=O)[C@H](Cc1ccc(O)c(C)c1C)NC(=O)[C@@H](NC(=O)[C@@H](N)CS)C(C)C)C(=O)O [(2S)-2-[(2S)-2-[(2S)-2-[(2R)-2-amino-3-sulfanylpropanamido]-3-methylbutanamido]-3-(4-hydroxy-2,3-dimethylphenyl)propanamido]-4-(methylsulfanyl)butanoic acid]",100
2,CSCC[C@H](NC(=O)[C@@H](Cc1ccc(O)c(C)c1C)NC(=O)[C@@H](NC(=O)[C@H](CS)NC=O)C(C)C)C(=O)O [Cmpound XI],> 100000
